We go through one compound from patent US6534077B2, “Organosiloxane containing modified groups in agricultural compositions” (Crompton Corporation, priority 2000, dated 2003).

The assay relates to Barnyardgrass (Echinochloa crus-galli). In words: Effect of adjuvant on glyphosate-IPA efficacy on barnyardgrass with simulated rainfall. As to conditions: 0.75 wt % glyphosate-IPA without adjuvant, rainfall 2 h after application. The class given is in vivo. Here is the method: Barnyardgrass (Echinochloa crus-galli) 10 cm in height were treated with 0.75 wt % (a.i.) glyphosate, isopropylamine salt (Monsanto), either alone, or plus a spray adjuvant (0.05 and 0.1 wt % respectively). The spray was applied at 100 L/ha using a T-Jet 8002E nozzle. The plants were subjected to simulated rainfall (2.5 cm), 2 h after herbicide application, to determine the rainfastening ability of the adjuvants. Plants were evaluated at week 1 and 2 weeks after treatment, by visual observation, relative to the untreated check. A score of 0 means no plant injury, while a score of 100 indicates total control (burndown, with no regrowth).

Molecules are shown by their SMILES.

`CC(C)N.O=C(O)CNCP(=O)(O)O` [glyphosate-IPA, glyphosate, isopropylamine salt]: the “Percent Control 1 WAT” value (1 week after treatment) is on record as 7.5d %. Also, the “Percent Control 2 WAT” value (2 weeks after treatment) is 18.75c %.
